What was measured:
Type in all cases: binding
PLK4 = biological target: T1, PLK4 (Homo sapiens, UniProt O00444); assay: ScanMAX Kinase analysis panel, PLK4; conditions: 1 μM in DMSO; <35% considered inhibitory; read-out: percent control (% control), PLK4
T1 construct: purchased DiscoverX Corp. (ScanMAX Kinase analysis panel, service)
T1 sequence (O00444 1-970): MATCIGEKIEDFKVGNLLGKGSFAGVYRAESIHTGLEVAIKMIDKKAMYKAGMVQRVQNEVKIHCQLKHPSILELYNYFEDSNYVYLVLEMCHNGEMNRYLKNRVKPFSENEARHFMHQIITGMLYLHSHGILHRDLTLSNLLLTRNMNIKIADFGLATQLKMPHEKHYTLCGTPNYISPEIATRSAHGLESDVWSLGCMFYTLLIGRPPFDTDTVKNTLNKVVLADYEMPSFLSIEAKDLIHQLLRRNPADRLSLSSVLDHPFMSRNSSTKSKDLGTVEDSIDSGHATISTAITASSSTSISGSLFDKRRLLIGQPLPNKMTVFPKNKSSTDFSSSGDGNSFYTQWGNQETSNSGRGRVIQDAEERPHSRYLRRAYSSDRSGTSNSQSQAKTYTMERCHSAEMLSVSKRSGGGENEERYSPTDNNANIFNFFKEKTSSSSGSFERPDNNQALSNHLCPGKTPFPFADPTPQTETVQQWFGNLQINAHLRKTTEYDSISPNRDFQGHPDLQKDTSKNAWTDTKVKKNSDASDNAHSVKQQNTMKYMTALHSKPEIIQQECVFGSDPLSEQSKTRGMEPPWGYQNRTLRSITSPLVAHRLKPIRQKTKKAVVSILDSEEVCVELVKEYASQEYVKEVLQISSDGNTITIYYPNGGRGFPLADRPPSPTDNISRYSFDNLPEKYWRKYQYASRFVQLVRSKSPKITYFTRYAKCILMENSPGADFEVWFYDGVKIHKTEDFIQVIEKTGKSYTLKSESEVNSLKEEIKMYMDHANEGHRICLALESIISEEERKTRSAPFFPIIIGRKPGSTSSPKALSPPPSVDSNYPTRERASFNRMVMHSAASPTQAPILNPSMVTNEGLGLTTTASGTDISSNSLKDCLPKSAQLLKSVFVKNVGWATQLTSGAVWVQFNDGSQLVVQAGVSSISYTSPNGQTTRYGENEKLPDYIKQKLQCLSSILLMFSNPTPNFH
Method: (§1) Specifically, the enzyme (kinase) selectivity of Example compounds 238, 361, 411, 157, 161, 228, and 158 selected from the Example compounds of the present invention was determined by commissioning DiscoverX Corp., and an experiment was performed using a ScanMAX™ Kinase analysis panel. In this case, a concentration of the drug with which the enzymes were treated was 1 μM in DMSO, and the percent control (% control) was defined in the same manner as in the following Expression 1.
(§2) (Example Compound−Positive Control)/(Negative Control−Positive Control)×100 [Expression 1]
(§3) wherein the positive control represents a compound having a percent control of 0%, and the negative control represents DMSO having a percent control of 100%. For the enzyme selectivity of the present invention, it was considered that the compound has an inhibitory activity on each of the enzymes when the percent control for the corresponding enzyme was <35% (i. e., less than 35%).

DYRK1B = biological target: T2, DYRK1B (Homo sapiens, UniProt Q9Y463); assay: ScanMAX Kinase analysis panel, DYRK1B; conditions: 1 μM in DMSO; <35% considered inhibitory; read-out: percent control (% control), DYRK1B
T2 construct: purchased DiscoverX Corp. (ScanMAX Kinase analysis panel, service)
T2 sequence (Q9Y463 whole entry): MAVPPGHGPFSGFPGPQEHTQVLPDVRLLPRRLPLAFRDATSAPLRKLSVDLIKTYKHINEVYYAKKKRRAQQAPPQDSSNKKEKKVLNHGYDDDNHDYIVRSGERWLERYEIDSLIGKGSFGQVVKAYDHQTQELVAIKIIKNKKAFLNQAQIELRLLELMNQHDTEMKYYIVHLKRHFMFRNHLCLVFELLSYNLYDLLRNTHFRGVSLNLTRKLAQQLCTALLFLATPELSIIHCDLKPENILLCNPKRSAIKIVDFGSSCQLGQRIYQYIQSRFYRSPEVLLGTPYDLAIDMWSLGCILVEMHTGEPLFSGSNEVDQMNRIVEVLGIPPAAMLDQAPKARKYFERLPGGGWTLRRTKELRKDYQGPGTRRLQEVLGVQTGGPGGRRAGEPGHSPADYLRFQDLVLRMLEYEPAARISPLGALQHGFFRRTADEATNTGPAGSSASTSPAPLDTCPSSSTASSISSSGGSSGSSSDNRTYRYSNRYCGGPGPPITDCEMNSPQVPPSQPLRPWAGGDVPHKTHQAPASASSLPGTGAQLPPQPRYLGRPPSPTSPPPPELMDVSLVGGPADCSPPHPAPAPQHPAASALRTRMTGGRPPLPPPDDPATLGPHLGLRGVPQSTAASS
Method: as §1, §2, §3

DYRK2 = biological target: T3, DYRK2 (Homo sapiens, UniProt Q92630); assay: ScanMAX Kinase analysis panel, DYRK2; conditions: 1 μM in DMSO; <35% considered inhibitory; read-out: percent control (% control), DYRK2
T3 construct: purchased DiscoverX Corp. (ScanMAX Kinase analysis panel, service)
T3 sequence (Q92630 1-601): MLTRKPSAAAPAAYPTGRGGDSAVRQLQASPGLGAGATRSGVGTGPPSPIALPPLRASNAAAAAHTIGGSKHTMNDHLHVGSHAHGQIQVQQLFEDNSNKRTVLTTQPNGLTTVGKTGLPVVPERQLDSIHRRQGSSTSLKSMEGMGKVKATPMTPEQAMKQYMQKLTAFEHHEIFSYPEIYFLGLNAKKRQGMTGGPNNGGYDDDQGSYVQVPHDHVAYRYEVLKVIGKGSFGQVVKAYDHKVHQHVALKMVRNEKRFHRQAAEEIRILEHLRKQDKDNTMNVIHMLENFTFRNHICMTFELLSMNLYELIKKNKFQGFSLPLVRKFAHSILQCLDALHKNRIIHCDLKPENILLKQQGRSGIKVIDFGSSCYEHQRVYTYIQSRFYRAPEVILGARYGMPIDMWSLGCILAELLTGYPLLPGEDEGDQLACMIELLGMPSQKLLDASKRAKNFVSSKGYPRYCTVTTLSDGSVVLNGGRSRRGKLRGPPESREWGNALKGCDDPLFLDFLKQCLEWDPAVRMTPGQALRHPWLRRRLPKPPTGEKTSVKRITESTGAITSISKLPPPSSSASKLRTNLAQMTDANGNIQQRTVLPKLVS
Method: as §1, §2, §3

LRRK2 (G2019S) = LRRK2 (G2019S) (Homo sapiens, UniProt Q5S007, G2019S); assay: ScanMAX Kinase analysis panel, LRRK2 (G2019S); set-up: purchased DiscoverX Corp. (ScanMAX Kinase analysis panel, service); conditions: 1 μM in DMSO; <35% considered inhibitory; read-out: percent control (% control), LRRK2 (G2019S)
Chain of LRRK2 (G2019S) (Q5S007 whole entry G2019S): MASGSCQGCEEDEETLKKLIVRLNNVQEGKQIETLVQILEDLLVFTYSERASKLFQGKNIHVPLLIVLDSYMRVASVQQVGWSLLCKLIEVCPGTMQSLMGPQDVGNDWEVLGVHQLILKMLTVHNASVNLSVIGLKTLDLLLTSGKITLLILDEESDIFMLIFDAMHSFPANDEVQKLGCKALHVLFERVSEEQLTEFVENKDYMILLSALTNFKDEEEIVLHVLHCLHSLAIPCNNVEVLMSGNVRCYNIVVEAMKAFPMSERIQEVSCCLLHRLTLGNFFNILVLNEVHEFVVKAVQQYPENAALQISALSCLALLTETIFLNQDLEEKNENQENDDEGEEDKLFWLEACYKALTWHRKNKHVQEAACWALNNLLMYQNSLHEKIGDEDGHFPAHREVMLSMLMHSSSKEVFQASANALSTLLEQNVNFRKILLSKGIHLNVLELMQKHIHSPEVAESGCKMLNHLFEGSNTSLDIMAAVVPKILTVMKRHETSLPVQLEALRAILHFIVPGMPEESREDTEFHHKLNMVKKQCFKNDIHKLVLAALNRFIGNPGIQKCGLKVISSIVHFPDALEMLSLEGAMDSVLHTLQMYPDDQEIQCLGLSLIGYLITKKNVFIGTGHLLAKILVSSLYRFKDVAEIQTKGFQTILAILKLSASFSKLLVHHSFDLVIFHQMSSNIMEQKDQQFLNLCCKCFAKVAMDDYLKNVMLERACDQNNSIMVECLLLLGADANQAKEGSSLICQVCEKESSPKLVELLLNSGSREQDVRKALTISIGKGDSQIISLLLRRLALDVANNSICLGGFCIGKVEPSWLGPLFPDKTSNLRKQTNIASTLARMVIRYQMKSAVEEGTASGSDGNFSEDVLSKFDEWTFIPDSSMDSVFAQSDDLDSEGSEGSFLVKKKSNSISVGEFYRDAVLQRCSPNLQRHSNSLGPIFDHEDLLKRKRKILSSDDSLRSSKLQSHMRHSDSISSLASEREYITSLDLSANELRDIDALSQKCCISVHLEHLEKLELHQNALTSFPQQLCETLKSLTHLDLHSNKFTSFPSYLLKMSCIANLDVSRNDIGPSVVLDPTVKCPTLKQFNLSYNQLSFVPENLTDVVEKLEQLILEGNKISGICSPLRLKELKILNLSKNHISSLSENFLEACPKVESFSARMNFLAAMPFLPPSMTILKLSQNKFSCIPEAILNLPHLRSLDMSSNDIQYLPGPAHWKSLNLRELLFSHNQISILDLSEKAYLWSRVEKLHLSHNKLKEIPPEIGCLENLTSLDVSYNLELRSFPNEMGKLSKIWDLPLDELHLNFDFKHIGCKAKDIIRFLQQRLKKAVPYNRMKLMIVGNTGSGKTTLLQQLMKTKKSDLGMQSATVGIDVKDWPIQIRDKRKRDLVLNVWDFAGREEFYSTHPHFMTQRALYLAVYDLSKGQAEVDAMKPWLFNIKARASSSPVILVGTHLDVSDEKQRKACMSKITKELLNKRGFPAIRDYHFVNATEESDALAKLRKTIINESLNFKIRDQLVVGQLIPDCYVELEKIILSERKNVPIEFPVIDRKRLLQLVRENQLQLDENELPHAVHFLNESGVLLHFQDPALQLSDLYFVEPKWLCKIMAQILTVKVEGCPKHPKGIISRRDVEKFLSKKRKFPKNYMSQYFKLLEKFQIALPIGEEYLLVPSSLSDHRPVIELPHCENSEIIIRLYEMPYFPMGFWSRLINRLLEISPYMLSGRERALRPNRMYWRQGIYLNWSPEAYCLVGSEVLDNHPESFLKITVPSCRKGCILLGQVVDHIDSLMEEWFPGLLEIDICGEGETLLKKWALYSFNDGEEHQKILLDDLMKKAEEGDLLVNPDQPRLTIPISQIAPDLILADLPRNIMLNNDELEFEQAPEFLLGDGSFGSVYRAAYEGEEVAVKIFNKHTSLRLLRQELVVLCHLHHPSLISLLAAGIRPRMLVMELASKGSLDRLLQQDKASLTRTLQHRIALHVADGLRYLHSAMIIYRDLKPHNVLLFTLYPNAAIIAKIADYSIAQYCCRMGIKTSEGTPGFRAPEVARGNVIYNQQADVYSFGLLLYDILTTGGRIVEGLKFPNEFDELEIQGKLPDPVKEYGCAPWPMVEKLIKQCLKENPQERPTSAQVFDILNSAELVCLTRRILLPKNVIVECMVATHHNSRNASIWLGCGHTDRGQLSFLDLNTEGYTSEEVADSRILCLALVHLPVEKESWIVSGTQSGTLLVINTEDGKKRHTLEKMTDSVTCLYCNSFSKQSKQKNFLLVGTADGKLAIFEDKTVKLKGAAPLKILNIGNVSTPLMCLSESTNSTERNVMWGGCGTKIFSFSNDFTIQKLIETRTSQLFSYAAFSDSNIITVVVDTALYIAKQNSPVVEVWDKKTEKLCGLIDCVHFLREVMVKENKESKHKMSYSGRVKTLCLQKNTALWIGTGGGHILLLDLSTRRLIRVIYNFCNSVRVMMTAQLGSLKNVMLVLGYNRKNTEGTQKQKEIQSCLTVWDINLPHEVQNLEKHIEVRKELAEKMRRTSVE
Method: as §1, §2, §3

FAK = biological target: T4, FAK (Homo sapiens, UniProt Q05397); assay: ScanMAX Kinase analysis panel, FAK; conditions: 1 μM in DMSO; <35% considered inhibitory; read-out: percent control (% control), FAK
T4 construct: purchased DiscoverX Corp. (ScanMAX Kinase analysis panel, service)
T4 sequence (Q05397 whole entry): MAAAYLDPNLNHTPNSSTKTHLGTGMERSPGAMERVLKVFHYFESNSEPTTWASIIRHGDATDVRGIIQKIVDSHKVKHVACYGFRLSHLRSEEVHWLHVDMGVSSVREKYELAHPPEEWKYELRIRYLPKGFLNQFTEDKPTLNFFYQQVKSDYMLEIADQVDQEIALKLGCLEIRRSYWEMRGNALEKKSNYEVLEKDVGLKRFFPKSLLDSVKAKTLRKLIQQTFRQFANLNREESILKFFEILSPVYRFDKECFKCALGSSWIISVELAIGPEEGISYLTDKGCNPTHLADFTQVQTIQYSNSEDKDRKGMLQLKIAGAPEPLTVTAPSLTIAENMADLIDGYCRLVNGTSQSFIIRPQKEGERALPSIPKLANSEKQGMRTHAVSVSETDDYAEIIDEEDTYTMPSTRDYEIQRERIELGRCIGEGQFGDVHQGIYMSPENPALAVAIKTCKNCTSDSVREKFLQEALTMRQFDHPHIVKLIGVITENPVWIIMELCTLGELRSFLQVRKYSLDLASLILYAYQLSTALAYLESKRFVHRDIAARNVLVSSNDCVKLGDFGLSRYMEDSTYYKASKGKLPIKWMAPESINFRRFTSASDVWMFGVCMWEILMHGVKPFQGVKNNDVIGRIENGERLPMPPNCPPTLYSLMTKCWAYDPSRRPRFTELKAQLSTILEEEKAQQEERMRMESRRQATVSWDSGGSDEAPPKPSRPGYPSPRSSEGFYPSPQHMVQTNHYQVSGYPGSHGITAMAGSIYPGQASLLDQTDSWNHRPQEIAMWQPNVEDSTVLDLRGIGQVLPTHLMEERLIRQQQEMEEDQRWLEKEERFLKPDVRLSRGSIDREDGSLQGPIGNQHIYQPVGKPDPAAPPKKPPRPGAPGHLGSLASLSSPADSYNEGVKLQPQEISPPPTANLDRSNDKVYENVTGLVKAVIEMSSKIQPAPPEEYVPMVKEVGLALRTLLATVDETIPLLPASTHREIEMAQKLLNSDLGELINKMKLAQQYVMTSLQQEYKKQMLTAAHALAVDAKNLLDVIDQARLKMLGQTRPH
Method: as §1, §2, §3

PHKG1 = biological target: T5, PHKG1 (Homo sapiens, UniProt Q16816); assay: ScanMAX Kinase analysis panel, PHKG1; conditions: 1 μM in DMSO; <35% considered inhibitory; read-out: percent control (% control), PHKG1
T5 construct: purchased DiscoverX Corp. (ScanMAX Kinase analysis panel, service)
T5 sequence (Q16816 whole entry): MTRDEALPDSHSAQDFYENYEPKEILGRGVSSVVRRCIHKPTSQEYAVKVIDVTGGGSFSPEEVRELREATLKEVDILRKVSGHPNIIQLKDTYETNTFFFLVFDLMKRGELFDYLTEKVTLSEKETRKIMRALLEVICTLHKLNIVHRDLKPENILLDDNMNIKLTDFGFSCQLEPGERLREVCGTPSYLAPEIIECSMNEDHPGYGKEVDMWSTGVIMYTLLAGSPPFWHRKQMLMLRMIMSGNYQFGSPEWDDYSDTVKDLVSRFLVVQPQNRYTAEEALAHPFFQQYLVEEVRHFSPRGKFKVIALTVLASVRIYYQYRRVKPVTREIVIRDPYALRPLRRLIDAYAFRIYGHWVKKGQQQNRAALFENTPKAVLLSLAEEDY
Method: as §1, §2, §3

CLK2 = biological target: T6, CLK2 (Homo sapiens, UniProt P49760); assay: ScanMAX Kinase analysis panel, CLK2; conditions: 1 μM in DMSO; <35% considered inhibitory; read-out: percent control (% control), CLK2
T6 construct: purchased DiscoverX Corp. (ScanMAX Kinase analysis panel, service)
T6 sequence (P49760 whole entry): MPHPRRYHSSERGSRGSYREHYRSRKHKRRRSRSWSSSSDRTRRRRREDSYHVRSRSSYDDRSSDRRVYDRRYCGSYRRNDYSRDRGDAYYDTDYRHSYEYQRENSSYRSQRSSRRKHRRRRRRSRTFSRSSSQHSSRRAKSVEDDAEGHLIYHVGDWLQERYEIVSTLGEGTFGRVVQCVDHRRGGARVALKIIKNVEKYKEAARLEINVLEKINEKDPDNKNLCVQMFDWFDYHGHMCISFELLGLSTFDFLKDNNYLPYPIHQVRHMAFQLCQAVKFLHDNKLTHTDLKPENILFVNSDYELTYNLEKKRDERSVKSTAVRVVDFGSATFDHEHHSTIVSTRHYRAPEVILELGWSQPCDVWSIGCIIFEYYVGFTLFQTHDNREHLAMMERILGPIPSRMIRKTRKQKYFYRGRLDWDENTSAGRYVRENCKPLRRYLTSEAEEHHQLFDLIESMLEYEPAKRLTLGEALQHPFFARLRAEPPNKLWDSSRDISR
Method: as §1, §2, §3

SMILES	remaining binding at 1 µM (PLK4) [%]	remaining binding at 1 µM (DYRK1B) [%]	remaining binding at 1 µM (DYRK2) [%]	remaining binding at 1 µM (LRRK2 (G2019S)) [%]	remaining binding at 1 µM (FAK) [%]	remaining binding at 1 µM (PHKG1) [%]	remaining binding at 1 µM (CLK2) [%]
C=CCNc1nc(Nc2ccc(S(=O)(=O)N3CCC(N4CCOCC4)CC3)cc2OC)nc2[nH]cc(C#N)c12 [Example 361, 4-(allylamino)-2-((2-methoxy-4-((4-morpholino-piperidin-1-yl)sulfonyl)phenyl)amino)-7H-pyrrolo[2,3-d]pyrimidine-5-carbonitrile]	0.3	6.1	10	0	0.75	9.7	3.9
CNc1nc(Nc2ccc(C(=O)N3CCC(N4CCOCC4)CC3)c3c2OCCO3)nc2[nH]cc(C(F)(F)F)c12 [Example 238, (8-((4-(methylamino)-5-(trifluoromethyl)-7H-pyrrolo[2,3-d]pyrimidin-2-yl)amino)-2,3-dihydrobenzo[b][1,4]dioxin-5-yl)(4-morpholinopiperidin-1-yl)methanone]	7.8	0	19	0.05	7.8	3.6	0.65
CNc1nc(Nc2ccc(S(=O)(=O)N3CCC(N4CCOCC4)CC3)cc2OC)nc2[nH]cc(C(F)(F)F)c12 [Example 157, N^2-(2-methoxy-4-((4-morpholinopiperidin-1-yl)sulfonyl)phenyl)-N^4-methyl-5-(trifluoromethyl)-7H-pyrrolo[2,3-d]pyrimidine-2,4-diamine 2,2,2-trifluoroacetate]	10	0	7	1.6	0.85	7.8	2.9
CCNc1nc(Nc2ccc(S(=O)(=O)N3CCC(N4CCOCC4)CC3)cc2OC)nc2[nH]cc(C(F)(F)F)c12 [Example 158, N^4-ethyl-N^2-(2-methoxy-4-((4-morpholinopiperidin-1-yl)sulfonyl)phenyl)-5-(trifluoromethyl)-7H-pyrrolo[2,3-d]pyrimidine-2,4-diamine 2,2,2-trifluoroacetate]	26	0.8	25	3.6	1.1	25	22
CNc1nc(Nc2ccc(P3(=O)CCN(C4CC4)CC3)cc2OC)nc2[nH]cc(C(F)(F)F)c12 [Example 411, 1-cyclopropyl-4-(3-methoxy-4-((4-(methylamino)-5-(trifluoromethyl)-7H-pyrrolo[2,3-d]pyrimidin-2-yl)amino)phenyl)-1,4-azaphosphinane-4-oxide]	23	4.5	28	1.3	10	17	0
CCCNc1nc(Nc2ccc(S(=O)(=O)N3CCC(N4CCOCC4)CC3)cc2OC)nc2[nH]cc(C(F)(F)F)c12 [Example 161, N^2-(2-methoxy-4-((4-morpholinopiperidin-1-yl)sulfonyl)phenyl)-N^4-propyl-5-(trifluoromethyl)-7H-pyrrolo[2,3-d]pyrimidine-2,4-diamine]	11	0	33	0	2.3	24	3.9
O=C(c1ccc(Nc2nc(C3CC3)c3c(C(F)(F)F)c[nH]c3n2)c2c1OCCO2)N1CCC(N2CCOCC2)CC1 [Example 228, (8-((4-cyclopropyl-5-(trifluoromethyl)-7H-pyrrolo[2,3-d]pyrimidin-2-yl)amino)-2,3-dihydrobenzo[b][1,4]dioxin-5-yl)(4-morpholinopiperidin-1-yl)methanone]	3.2	0	16	1.1	24	30	5.5

— patent US20230066011A1, “PYRROLOPYRIMIDINE DERIVATIVE, AND PHARMACEUTICAL COMPOSITION FOR PREVENTING OR TREATING PROTEIN KINASE-RELATED DISEASE COMPRISING SAME AS ACTIVE INGREDIENT” (VORONOI CO., LTD., priority 2019, published 2023)
